Earlier results in patent US20150024055A1, “ENHANCED IMMEDIATE RELEASE FORMULATIONS OF TOPIRAMATE” (Supernus Pharmaceuticals, Inc., priority 2006, published 2015).

Assays:
[1] = in vivo

solubility in organic solvents (acetone, dimethylsulfoxide and ethanol): soluble
solubility in alkaline solutions (alkaline solutions containing sodium hydroxide or sodium phosphate): soluble
solubility of topiramate in water (water, room temperature): about 9.8 mg/ml
time to reach peak plasma levels [1]: about two
Compound: CC1(C)O[C@@H]2[C@@H](CO[C@@]3(COS(N)(=O)=O)OC(C)(C)O[C@@H]23)O1 [Topiramate]
